Test results published in patent US20250092065A1, “2-(INDAZOL-5-YL)-6-(PIPERIDIN-4-YL)-1,7-NAPHTHYRIDINE DERIVATIVES AND RELATED COMPOUNDS AS MODULATORS FOR SPLICING NUCLEIC ACIDS AND FOR THE TREATMENT OF PROLIFERATIVE DISEASES” (REMIX THERAPEUTICS INC., priority 2022, published 2025).
Like-named read-outs stand apart in the source and are kept apart here.

Assays:
[1] = tested on: SMN2 mRNA; experiment: RT-qPCR splicing assay, SMN2 mRNA; assay type: cell-based, human; conditions: Homo sapiens, canonical junction qPCR panel, Table 4; read-out: SMN2 IC50 (decrease in CJ mRNA levels)
Summary of the method: (§1)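 A673 or K562 cells treated 24 h at 37 °C with 11-point 3-fold dilutions (top final 10 uM, DMSO ≤0.25%). Lysates analysed by one-step RT-qPCR for canonical (CJ) and alternative-exon (AJ) junctions, normalized to GAPDH, GUSB or PPIA. ΔΔCt vs DMSO, RQ = 2^(−ΔΔCt), expressed as percentage response.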

[2] = tested on: MYB mRNA; experiment: RT-qPCR splicing assay, MYB mRNA canonical (CJ) and alternative (AJ) junction; assay type: cell-based, human; conditions: Homo sapiens; for AC50: MYB alternative junction mRNA, read-out: MYB AJ (increase in AJ mRNA, AC50)
Summary of the method: as §1

[3] = tested on: K562 cells; experiment: Cell Titer Glo 2.0 cell viability (toxicity) assay, K562; conditions: 500 cells/well, 72 hours
[4] = tested on: MYB; experiment: HiBiT protein abundance assay, MYB (K562 HiBiT knock-in); assay type: cell-based, human; conditions: HiBiT knock-in K562 cells, 24 hours, top dose 10 μM
Summary of the method: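 K562 HiBiT knock-in, 24 h, 37 °C, top 10 μM final, 3-fold ×10, DMSO ≤0.25%. Lytic HiBiT luminescence; PC = parental K562, NC = DMSO; 4PL IC50.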

[5] = MYB canonical junction mRNA, RT-qPCR, read-out: MYB CJ (decrease in CJ mRNA levels, IC50)
[6] = canonical junction qPCR panel, Table 4, read-out: MYB IC50 (decrease in CJ mRNA levels)

Row | SMILES | IC50 [1] [nM] | AC50 ([2]; RT-qPCR) [nM] | IC50 [2, 5] [nM] | IC50 [2, 6] [nM] | Effect of Exemplary Compounds on Cell Viability, K562 [3] | IC50 [4] [nM]
1 | Cc1c(O)c(-c2nc(-c3nnc[nH]3)c3cc(N4CCNCC4)ccc3n2)cc2cn(C)nc12 [Compound 522, 2,7-dimethyl-5-[6-(piperazin-1-yl)-4-(4H-1,2,4-triazol-3-yl)quinazolin-2-yl]indazol-6-ol; bis(trifluoroacetic acid)] | < 100 | 1000 to 10000 | 1000 to 10000 | 1000 to 10000 | C (C represents 1000-9999 nM) | 100 to 1000
2 | Cc1c(O)c(-c2nc(C(N)=O)c3cc(N4CCNCC4)ccc3n2)cc2cn(C)nc12 [Compound 523, 2-(6-hydroxy-2,7-dimethylindazol-5-yl)-6-(piperazin-1-yl) quinazoline-4-carboxamide] | < 100 | < 100 | < 100 | < 100 | A (A represents <100 nM) | < 100
3 | Cc1c(O)c(-c2nc(C(=O)O)c3cc(N4CCNCC4)ccc3n2)cc2cn(C)nc12 [Compound 524, 2-(6-hydroxy-2,7-dimethylindazol-5-yl)-6-(piperazin-1-yl) quinazoline-4-carboxylic acid] | 1000 to 10000 | > 10000 | > 10000 | > 10000 | D (D represents greater than 10 μM in K562 cells) | > 10000
4 | Cc1c(O)c(-c2ncc3cc(N4C[C@@H](C)N[C@@H](C)C4)ccc3n2)cc2cn(C)nc12 [Compound 525, 5-{6-[(3R,5S)-3,5-dimethylpiperazin-1-yl]quinazolin-2-yl}-2,7-dimethylindazol-6-ol] | < 100 | < 100 | < 100 | < 100 | B (B represents 100-1000 nM) | < 100
5 | Cc1c(O)c(-c2ncc3nc(N4C[C@@H](C)N[C@@H](C)C4)ccc3n2)cc2cn(C)nc12 [Compound 526, 5-{6-[(3R,5S)-3,5-dimethylpiperazin-1-yl]pyrido[3,2-d]pyrimidin-2-yl}-2,7-dimethylindazol-6-ol] | < 100 | 100 to 1000 | < 100 | < 100 | B (B represents 100-1000 nM) | 100 to 1000
6 | CNC(=O)c1nc(-c2cc3cn(C)nc3c(F)c2O)nc2ccc(N3C[C@@H](C)N[C@@H](C)C3)cc12 [Compound 527, 6-[(3R,5S)-3,5-dimethylpiperazin-1-yl]-2-(7-fluoro-6-hydroxy-2-methylindazol-5-yl)-N-methylquinazoline-4-carboxamide] | < 100 | < 100 | < 100 | < 100 | A (A represents <100 nM) | < 100
7 | CNC(=O)c1nc(-c2cc3cn(C)nc3c(F)c2O)nc2ccc(N3CCC(N(C)C)CC3)cc12 [Compound 528, 6-[4-(dimethylamino)piperidin-1-yl]-2-(7-fluoro-6-hydroxy-2-methylindazol-5-yl)-N-methylquinazoline-4-carboxamide] | < 100 | < 100 | < 100 | < 100 | A (A represents <100 nM) | < 100
8 | CNC(=O)c1nc(-c2cc3cn(C)nc3c(F)c2O)nc2ccc(N3CCN[C@@H](C)C3)cc12 [Compound 529, 2-(7-fluoro-6-hydroxy-2-methylindazol-5-yl)-N-methyl-6-[(3S)-3-methylpiperazin-1-yl]quinazoline-4-carboxamide] | < 100 | < 100 | < 100 | < 100 | A (A represents <100 nM) | < 100
9 | CNC(=O)c1nc(-c2cc3cn(C)nc3cc2O)nc2ccc(N3CCN[C@@H](C)C3)cc12 [Compound 530, 2-(6-hydroxy-2-methylindazol-5-yl)-N-methyl-6-[(3S)-3-methylpiperazin-1-yl]quinazoline-4-carboxamide] | < 100 | < 100 | < 100 | < 100 | A (A represents <100 nM) | < 100
10 | CNC(=O)c1nc(-c2cc3cn(C)nc3cc2O)nc2ccc(N3C[C@@H](C)N[C@@H](C)C3)cc12 [Compound 531, 6-[(3R,5S)-3,5-dimethylpiperazin-1-yl]-2-(6-hydroxy-2-methylindazol-5-yl)-N-methylquinazoline-4-carboxamide] | < 100 | < 100 | < 100 | < 100 | A (A represents <100 nM) | < 100
11 | CNC(=O)c1nc(-c2cc3cn(C)nc3c(C)c2O)nc2ccc(N3CCNC4(CC4)C3)cc12 [Compound 532, 6-{4,7-diazaspiro[2.5]octan-7-yl}-2-(6-hydroxy-2,7-dimethylindazol-5-yl)-N-methylquinazoline-4-carboxamide] | < 100 | < 100 | < 100 | < 100 | B (B represents 100-1000 nM) | < 100
12 | CNC(=O)c1nc(-c2cc3cn(C)nc3c(C)c2O)nc2ccc(N3CCNCC3)nc12 [Compound 533, 2-(6-hydroxy-2,7-dimethylindazol-5-yl)-N-methyl-6-(piperazin-1-yl)pyrido[3,2-d]pyrimidine-4-carboxamide] | < 100 | 100 to 1000 | 100 to 1000 | 100 to 1000 | B (B represents 100-1000 nM) | 100 to 1000
13 | CNC(=O)c1nc(-c2cc3cn(C)nc3c(C)c2O)nc2ccc(N3C[C@@H](C)N[C@@H](C)C3)nc12 [Compound 534, 6-[(3R,5S)-3,5-dimethylpiperazin-1-yl]-2-(6-hydroxy-2,7-dimethylindazol-5-yl)-N-methylpyrido[3,2-d]pyrimidine-4-carboxamide] | < 100 | 100 to 1000 | 100 to 1000 | 100 to 1000 | B (B represents 100-1000 nM) | 100 to 1000
14 | CCNC(=O)c1nc(-c2cc3cn(C)nc3c(C)c2O)nc2ccc(N3C[C@@H](C)N[C@@H](C)C3)cc12 [Compound 535, 6-[(3R,5S)-3,5-dimethylpiperazin-1-yl]-N-ethyl-2-(6-hydroxy-2,7-dimethylindazol-5-yl)quinazoline-4-carboxamide] | < 100 | < 100 | < 100 | < 100 | A (A represents <100 nM) | < 100
15 | CNC(=O)c1nc(-c2cc3cn(C)nc3c(C)c2O)nc2ccc(N3CC[C@@H](NC)C3)cc12 [Compound 536, 2-(6-hydroxy-2,7-dimethylindazol-5-yl)-N-methyl-6-[(3R)-3-(methylamino)pyrrolidin-1-yl]quinazoline-4-carboxamide] | < 100 | < 100 | < 100 | < 100 | A (A represents <100 nM) | < 100
